# Results as given in ChEMBL document CHEMBL1201862, “PubChem BioAssay data set” (2004).
# Calls of active or inactive are those of the source.
# Experiments:
# [1] = Luminescence Cell-Based Dose Confirmation HTS to Identify Activators of 5'UTR Stem-Loop Driven Alpha-Synuclein mRNA Translation in H4 Neuroglioblastoma Cells. [Related pubchem assays: 1829 (Project Summary), 1814 (Primary HTS)]; format: functional
# [2] = Luminescence Cell-Based Dose Response HTS to Identify Activators of Luciferase Translation or Activity in H4 […] Cells. [Related pubchem assays: 1829 (Project Summary), 1814 (Primary HTS)]; format: functional
# [3] = tested on: H4; assay: Luminescence Cell-Based Dose Response HTS to Identify Activators of 5'UTR Stem-Loop Driven Prion Protein mRNA Translation in H4 Neuroglioblastoma Cells. [Related pubchem assays: 1829 (Project Summary), 1814 (Primary HTS)]; format: functional; conditions: Homo sapiens
# [4] = target: Cytochrome P450 2C9 (Homo sapiens, UniProt P11712)
# Chain of Cytochrome P450 2C9 (P11712 whole entry): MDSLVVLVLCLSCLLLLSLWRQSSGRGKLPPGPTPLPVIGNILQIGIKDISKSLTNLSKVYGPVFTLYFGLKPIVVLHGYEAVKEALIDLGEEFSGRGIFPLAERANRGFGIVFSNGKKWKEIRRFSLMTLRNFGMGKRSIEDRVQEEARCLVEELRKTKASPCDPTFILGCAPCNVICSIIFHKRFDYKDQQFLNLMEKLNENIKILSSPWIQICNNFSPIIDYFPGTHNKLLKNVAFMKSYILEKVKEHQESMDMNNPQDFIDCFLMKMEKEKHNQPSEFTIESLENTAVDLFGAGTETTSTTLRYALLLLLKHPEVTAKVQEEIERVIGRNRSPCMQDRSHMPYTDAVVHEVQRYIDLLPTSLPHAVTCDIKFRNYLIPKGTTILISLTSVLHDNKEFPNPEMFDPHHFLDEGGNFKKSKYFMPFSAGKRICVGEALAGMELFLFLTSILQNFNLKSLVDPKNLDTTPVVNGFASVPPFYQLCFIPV
# [5] = growth suppression of PTEN-null colon cells, dose response, cell-based, HCT116 PTEN knockout (AID 1047); format: functional;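 note: HCT116 colon tumor cells with PTEN knocked out; cells exposed to compound for 60 hours before readout; potency for loss of cell viability measured by luminescence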
# [6] = growth suppression of beta-catenin-knockout colon cells, dose response, cell-based, HCT116, human colon tumor (AID 1045); format: functional;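 note: HCT116 colon tumor cells with beta catenin knocked out; cells exposed to compound for 60 hours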
# [7] = target: Cytochrome P450 2C19 (Homo sapiens, UniProt P33261); assay: Cytochrome panel assay with activity outcomes. Panel member name: p450-cyp2c19 Compounds with AC50 equal or less than 10 uM are considered active; format: functional
# Chain of Cytochrome P450 2C19 (P33261 whole entry): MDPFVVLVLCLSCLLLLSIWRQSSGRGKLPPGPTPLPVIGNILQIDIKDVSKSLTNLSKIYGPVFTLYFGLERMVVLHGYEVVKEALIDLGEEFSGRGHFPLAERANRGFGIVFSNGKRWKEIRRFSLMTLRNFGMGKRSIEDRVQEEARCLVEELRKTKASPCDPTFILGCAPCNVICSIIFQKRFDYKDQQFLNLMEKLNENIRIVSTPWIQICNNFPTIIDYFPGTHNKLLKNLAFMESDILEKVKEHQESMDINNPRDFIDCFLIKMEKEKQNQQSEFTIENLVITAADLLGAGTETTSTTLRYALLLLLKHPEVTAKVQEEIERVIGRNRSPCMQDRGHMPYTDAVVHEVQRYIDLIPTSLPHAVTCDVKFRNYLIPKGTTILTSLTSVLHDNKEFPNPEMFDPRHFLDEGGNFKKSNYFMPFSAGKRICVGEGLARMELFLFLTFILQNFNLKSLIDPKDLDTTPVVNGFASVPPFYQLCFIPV
# [8] = target: Cytochrome P450 2D6 (Homo sapiens, UniProt P10635);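 note: CYP2D6 member of a cytochrome P450 panel assay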
# Chain of Cytochrome P450 2D6 (P10635 whole entry): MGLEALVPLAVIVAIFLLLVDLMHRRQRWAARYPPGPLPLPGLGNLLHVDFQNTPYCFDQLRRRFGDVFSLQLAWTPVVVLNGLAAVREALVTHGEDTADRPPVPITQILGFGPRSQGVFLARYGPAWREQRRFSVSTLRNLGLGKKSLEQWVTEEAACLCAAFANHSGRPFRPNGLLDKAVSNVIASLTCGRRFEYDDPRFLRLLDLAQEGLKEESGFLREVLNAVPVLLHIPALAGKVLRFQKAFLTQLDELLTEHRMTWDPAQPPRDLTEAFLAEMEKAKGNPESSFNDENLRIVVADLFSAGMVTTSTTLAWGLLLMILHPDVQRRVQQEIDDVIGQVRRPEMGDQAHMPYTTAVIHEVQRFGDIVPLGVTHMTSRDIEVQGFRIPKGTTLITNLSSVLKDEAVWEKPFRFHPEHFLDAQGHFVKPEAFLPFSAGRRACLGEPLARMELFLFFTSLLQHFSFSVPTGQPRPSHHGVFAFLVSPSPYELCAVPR
# [9] = target: T1, Cytochrome P450 1A2 (Homo sapiens, UniProt P05177);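 note: PubChem cytochrome P450 panel assay, CYP1A2 panel member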
# T1 sequence (P05177 whole entry): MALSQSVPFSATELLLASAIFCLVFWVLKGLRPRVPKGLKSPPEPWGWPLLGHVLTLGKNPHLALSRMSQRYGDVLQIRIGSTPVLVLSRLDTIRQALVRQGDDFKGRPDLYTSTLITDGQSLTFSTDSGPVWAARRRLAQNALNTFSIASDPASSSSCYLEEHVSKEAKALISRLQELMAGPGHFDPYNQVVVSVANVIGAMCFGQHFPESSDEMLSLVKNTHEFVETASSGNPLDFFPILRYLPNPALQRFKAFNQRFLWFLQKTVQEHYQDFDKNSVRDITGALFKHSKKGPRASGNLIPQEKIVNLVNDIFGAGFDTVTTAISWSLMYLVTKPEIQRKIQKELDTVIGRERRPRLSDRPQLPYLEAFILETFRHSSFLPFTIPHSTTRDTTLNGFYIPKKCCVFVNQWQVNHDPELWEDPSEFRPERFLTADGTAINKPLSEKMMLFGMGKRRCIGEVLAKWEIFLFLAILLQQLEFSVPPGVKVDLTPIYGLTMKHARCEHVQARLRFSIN
# [10] = Luminescence Cell-Based Dose Retest to Confirm Inhibitors of Cancer Stem Cells. [Related pubchem assays (depositor defined):AID2717, AID2721]; format: functional; conditions: Homo sapiens
# [11] = inhibitors of intracellular T. cruzi replication, confirmation, NIH3T3 host cells, beta-gal luminescence (AID 2044); format: functional, cell-based;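 note: intracellular parasites grown in NIH/3T3 mouse fibroblasts as host cells; luminescent beta-galactosidase reporter signal from transgenic T. cruzi replicating inside host cells; inhibitors lower the luminescence signal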
# [12] = cytotoxicity toward NIH3T3 fibroblasts, dose response, counter-screen, cell-based, ATP luminescence, mouse fibroblasts (AID 2010); format: functional;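 note: cells exposed to compound for about 90 hours before reading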
# [13] = tested on: Streptococcus sp. 'group A'; assay: growth inhibition of control SK(-) GAS strain, dose response, counter-screen for streptokinase expression inhibitor project, luminescence, kanamycin, BacTiterGlo, confirmation (AID 1900); format: functional, organism-based
# [14] = target: T2, Streptokinase A (Streptococcus pyogenes serotype M1, UniProt P10520); assay: S. pyogenes streptokinase expression inhibitors, potency, dose response, plasminogen activation absorbance, OD405 (AID 1914); format: functional, Streptococcus pyogenes M1 GAS;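 note: secreted streptokinase activity via plasminogen activation per viability signal from cell pellet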
# T2 sequence (P10520 whole entry): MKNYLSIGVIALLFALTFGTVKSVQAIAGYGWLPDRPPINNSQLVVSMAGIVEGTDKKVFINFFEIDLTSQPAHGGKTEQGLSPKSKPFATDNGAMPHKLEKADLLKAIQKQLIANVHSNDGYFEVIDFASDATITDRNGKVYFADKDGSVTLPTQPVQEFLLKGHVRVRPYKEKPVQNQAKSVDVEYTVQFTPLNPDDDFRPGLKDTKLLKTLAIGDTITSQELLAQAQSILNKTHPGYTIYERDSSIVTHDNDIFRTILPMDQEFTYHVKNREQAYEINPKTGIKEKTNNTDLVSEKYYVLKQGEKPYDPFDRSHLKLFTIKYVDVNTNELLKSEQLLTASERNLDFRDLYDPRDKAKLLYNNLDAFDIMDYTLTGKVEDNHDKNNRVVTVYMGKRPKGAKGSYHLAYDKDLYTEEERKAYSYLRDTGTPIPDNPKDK
# [15] = tested on: Streptococcus; assay: Group A Streptococcus viability loss, dose response, counter-screen for streptokinase expression inhibitor project, luminescence, BacTiterGlo (AID 1915); format: functional, organism-based;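 note: potency for reduction of bacterial viability or growth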
# [16] = tested on: INS1; assay: beta cell apoptosis inhibitors, cytokine rescue, dose response, luminescence, retest (AID 449756); format: functional, cell-based; conditions: Rattus norvegicus;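 note: cell death triggered by IL-1 beta plus TNF-alpha plus IFN-gamma mixture; protective hits raise ATP signal compared with cytokine alone wells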
smiles,measurement,setting,value
[O-][n+]1c2c([n+]([O-])c3cc(N4CCCC4)c(F)cc31)CCCC2,EC50,[1],> 60 µM (not active)
same,EC50,[2],20.3 µM (active)
same,EC50,[3],7.53 µM (active)
CCc1c(C)nc2ccc(Br)cc2c1Cl,AC50,[4],11.2 µM (inconclusive)
CCCCNC(=O)CSc1nc2cc(OC)c(OC)cc2c(=O)n1Cc1ccc(OC)cc1,EC50,[5],6.66 µM (active)
same,EC50,[6],10.3 µM (active)
same,AC50,[7]; read-out: AC50,6.31 µM (inconclusive)
Cc1cc(F)ccc1S(=O)(=O)Nc1ccccc1C(=O)Nc1ccccc1N1CCOCC1,AC50,[8],15.8 µM (inconclusive)
COCCn1c(=O)c(CCc2ccccc2)nc2cnc(N(C)C)nc21,AC50,[8],10 µM (inconclusive)
same,AC50,[4],25.1 µM (inconclusive)
Cc1c(Br)c([N+](=O)[O-])nn1CC(=O)NCc1cccs1,AC50,[7]; read-out: AC50,5.01 µM (inconclusive)
same,AC50,[8],5.01 µM (inconclusive)
same,AC50,[9],14.1 µM (inconclusive)
Cc1ccc(-n2c(CCC(=O)O)ccc2-c2cccs2)cc1C,AC50,[4],7.08 µM (inconclusive)
CN1C(=O)C(O)(CC(=O)c2ccccc2O)c2cc(Br)ccc21 (stereo unspecified),EC50,[5],18 µM (active)
same,EC50,[6],17 µM (active)
CN(Cc1ccco1)c1ncncc1-c1cccc(NS(C)(=O)=O)c1,AC50,[8],20 µM (inconclusive)
same,AC50,[4],0.501 µM (inconclusive)
CC(C)OC(=O)C(C#N)c1nc2ccccc2nc1N1CCN(Cc2ccccc2)CC1 (stereo unspecified),AC50,[8],0.112 µM (inconclusive)
N#CCCn1c(=O)c(-c2cccc(C#N)c2)nc2cnc(Oc3ccccc3)nc21,AC50,[9],20 µM (inconclusive)
same,AC50,[4],39.8 µM (inconclusive)
CCc1cc2c(=O)c(-c3ccc4c(c3)OCCO4)c(C)oc2cc1OS(C)(=O)=O,EC50,[5],21.3 µM (active)
same,EC50,[6],28.1 µM (active)
CCCCSc1ncc(C(=O)OCC)c(N)n1,EC50,[2],0.125 µM (active)
O=C(CSCc1cccc(Cl)c1)Nc1ccccc1-c1ccccc1,AC50,[10],21.7 µM (active)
COc1ccc2cc3cc(C(=O)Nc4ccc5c(c4)OCO5)oc3nc2c1,AC50,[4],5.01 µM (inconclusive)
O=C(Cn1cc(SCc2ccccc2Cl)c2ccccc21)N1CCOCC1,EC50,[1],23.8 µM (active)
same,EC50,[2],8.21 µM (active)
same,EC50,[3],21 µM (active)
CCC(c1nnnn1Cc1ccco1)N(CCc1ccccc1)Cc1cc2ccc(OC)cc2nc1O (stereo unspecified),EC50,[5],22.8 µM (active)
same,EC50,[6],23.6 µM (active)
O=c1c(-c2ccc(F)c(F)c2)nc2cncnc2n1Cc1ccccc1,AC50,[7]; read-out: AC50,0.0501 µM (inconclusive)
N#Cc1c(N2CCCC2)nsc1-c1ccccc1,EC50,[1],7.09 µM (active)
same,EC50,[2],12.5 µM (active)
same,EC50,[3],23.2 µM (active)
COc1cc2c(=O)n(Cc3ccco3)c(=O)n(CC(=O)c3ccc(Br)cc3)c2cc1OC,EC50,[5],8.57 µM (active)
same,EC50,[6],9.3 µM (active)
Cc1ccc(S[C@@H](CCN2CC[C@H](C(C)(C)C)CCC2=O)c2ccccc2)cc1,AC50,[10],2.64 µM (active)
COc1ccccc1-c1cncnc1Nc1ccc(F)cc1,AC50,[8],15.8 µM (inconclusive)
COc1ncc2nc(-c3cccs3)c(=O)n(CCc3ccccc3)c2n1,AC50,[7]; read-out: AC50,2.51 µM (inconclusive)
O=C(c1cc(O)nc2ccc(Br)cc12)N1CCC2(CC1)OCCO2,AC50,[7]; read-out: AC50,28.2 µM (inconclusive)
same,AC50,[4],39.8 µM (inconclusive)
O=C(CN1CCCCC1)Nc1ccc(Br)cc1C(=O)c1ccccc1Cl,AC50,[8],11.2 µM (inconclusive)
CC(=O)OC[C@@H]1O[C@@H](O/N=C2/C[C@@H](O)[C@@H](O)[C@@H]3[C@@H]4C(=O)N(C[C@@H]5CCCO5)C(=O)[C@H]4CC[C@H]23)[C@H](OC(C)=O)[C@H](OC(C)=O)[C@@H]1OC(C)=O,AC50,[8],5.01 µM (inconclusive)
Cc1noc(C)c1C(=O)N1CCC2(CCCN(CC(C)C)C2)CC1,AC50,[7]; read-out: AC50,39.8 µM (inconclusive)
same,AC50,[4],39.8 µM (inconclusive)
c1ccc(C(c2ccccc2)N2CCC3(CCNCC3)CC2)cc1,AC50,[4],31.6 µM (inconclusive)
Cc1ccc(C23CC4CC(CC(NC(=O)N5CCN(C)CC5)(C4)C2)C3)cc1,EC50,[5],18 µM (active)
same,EC50,[6],17.7 µM (active)
c1ccc(-c2nnn(CCN3CCCCC3)n2)cc1,AC50,[8],3.16 µM (inconclusive)
same,AC50,[9],5.01 µM (inconclusive)
COc1cccc(NC(=O)COC(=O)c2c3c(nc4ccccc24)CCC(C)C3)c1 (stereo unspecified),EC50,[11],2.18 µM (active)
same,EC50,[5],8.9 µM (active)
same,EC50,[12],> 60 µM (not active)
same,EC50,[6],14.4 µM (active)
CCC1CCCCN1C(=O)CSc1nc2c3ccccc3nc-2c(O)n1C (stereo unspecified),EC50,[5],21.9 µM (active)
same,EC50,[6],21.2 µM (active)
Clc1ccc([C@@H](OCCN2CCCCC2)c2ccccc2)cc1,AC50,[7]; read-out: AC50,6.31 µM (inconclusive)
same,AC50,[9],12.6 µM (inconclusive)
O=C1CSC(c2ccccn2)N1c1ccc(Cl)c(Cl)c1 (stereo unspecified),AC50,[4],20 µM (inconclusive)
CCOc1ccc(NC(=O)CN2CCN(S(=O)(=O)c3ccc(Cl)cc3)CC2)cc1,AC50,[7]; read-out: AC50,0.562 µM (inconclusive)
same,AC50,[4],2 µM (inconclusive)
O=C(CCn1nc(-c2ccc(Cl)cc2)ccc1=O)NCc1ccccn1,AC50,[9],15.8 µM (inconclusive)
same,AC50,[4],5.01 µM (inconclusive)
Clc1ccccc1-c1nnc2sc(-c3ccc4c(c3)OCO4)nn12,EC50,[1],> 120 µM (not active)
same,EC50,[2],10.9 µM (active)
same,EC50,[3],57.6 µM (inconclusive)
COc1ccccc1CNS(=O)(=O)c1ccc2ncc(C(=O)O)c(O)c2c1,AC50,[9],10 µM (inconclusive)
same,AC50,[4],11.2 µM (inconclusive)
COc1ccc(CCNC(=O)CCN2C(=O)C(C)Oc3ccc(C)cc32)cc1OC (stereo unspecified),AC50,[4],5.62 µM (inconclusive)
CC(C)(C)c1c2c(c(C(C)(C)C)c3c1OCN(Cc1ccccc1)C3)OCN(Cc1ccccc1)C2,AC50,[7],inconclusive
C[C@H]1[C@H](C)CC[C@]2(C)CC[C@]3(C)C(=CC(=O)C4[C@@]5(C)CC[C@H](O)C(C)(C)C5CC[C@]43C)[C@H]12 (stereo partly specified),AC50,[10],4.76 µM (active)
O=C(O)c1ccccc1/C=N\N=C1c2ccccc2-c2ccccc21,AC50,[4],7.94 µM (inconclusive)
O=C(CSc1nnc(-c2ccccn2)o1)Nc1cccc(Cl)c1,EC50,[2],4.83 µM (active)
same,EC50,[3],> 120 µM (not active)
O=c1c(-c2cc(F)cc(F)c2)nc2cnc(N3CCNCC3)nc2n1C1CC1,AC50,[7]; read-out: AC50,20 µM (inconclusive)
C=C(C)COc1ccc(-c2nc(N)ncc2-c2ccc(Cl)cc2)c(O)c1,EC50,[13],6.33 µM (active)
same,EC50,[14],> 150 µM (not active)
same,EC50,[15],8.12 µM (active)
same,AC50,[10],3.57 µM (active)
CCc1c(C2(O)CCCCC2)[nH]c2cc(C(F)(F)F)ccc12,AC50,[10],2.64 µM (active)
same,AC50,[16],7.52 µM (active)
c1cnc(Nc2nc(-c3ccc4ccccc4c3)cs2)nc1,AC50,[7],inconclusive
c1ccc(N2CCC3(CCNCC3)CC2)cc1,AC50,[8],15.8 µM (inconclusive)
CNC(C)c1cc(OC)ccc1OC (stereo unspecified),AC50,[8],25.1 µM (inconclusive)
CCc1ccccc1NC(=O)c1ccc(F)c(S(=O)(=O)N2CCC(C(N)=O)CC2)c1,AC50,[7]; read-out: AC50,31.6 µM (inconclusive)
same,AC50,[4],25.1 µM (inconclusive)
Cc1cccn2c(/C=N/OCc3ccc(F)cc3)c(-c3ccc(Cl)cc3)nc12,AC50,[7]; read-out: AC50,3.16 µM (inconclusive)
O=C(Cn1ccs/c1=N/C(=O)C(F)(F)F)c1ccccc1,EC50,[1],56.9 µM (active)
same,EC50,[2],47.9 µM (active)
same,EC50,[3],81.7 µM (inconclusive)
